# Results taken from US20240315989A1 (priority 2021, published 2024).
# Several values for one entry are separate records, joined by “and”; a condition that tells them apart may be missing. Equal values may be shown once. Read-outs that look alike come from different tables or passages of the source.
# Tests used:
# [1] = n = 80; 15 days
# Source text: For participants who had stopped responding to the surveys prior to day 15 or who had met the primary end point, medical records and subsequent calls to these participants were used to determine whether they met the primary end point. For participants who met the primary end point, hospital records were used to confirm specific health care use (e.g., supplemental oxygen use, hospital length of stay, ventilator support).
# [2] = tested on: COVID-19; conditions: follow-up questionnaire
# [3] = tested on: COVID-19 (SARS-CoV-2 infection)
# [4] = tested on: COVID-19; conditions: cited from earlier work
# [5] = tested on: α1-, α2-, β-adrenergic, muscarinic, dopamine D2, histamine H1, GABA-benzodiazepine, opiate, 5-HT1, or 5-HT2 receptors; conditions: cited from earlier work
# [6] = tested on: COVID-19 (SARS-CoV-2 infection); conditions: cited from earlier work
# [7] = Intent to Treat Analysis, all randomized
# [8] = per protocol, fluvoxamine group
compound,measurement,setting,value
"COCCCC/C(=N\OCCN)c1ccc(C(F)(F)F)cc1.O=C(O)/C=C\C(=O)O [fluvoxamine, 5-methoxy-4′-(trifluoromethyl)valerophenone-(E)-O-(2-aminoethyl)oxime maleate (1:1)]","Fever, No. of adverse events (%)",[1],0 No. (%)
same,"Flank pain, No. of adverse events (%)",[1],0 No. (%)
same,"Gastroenteritis, nausea, or vomiting, No. of adverse events (%)",[1],1 (1.3) No. (%)
same,"Headache or head pain, No. of adverse events (%)",[1],2 (2.5) No. (%)
same,"Hypercapnia, No. of adverse events (%)",[1],0 No. (%)
same,"Muscle aches, No. of adverse events (%)",[1],1 (1.3) No. (%)
same,"Other adverse events, by No. of patients (%)",[1],11 (13.8) No. (%)
same,"Pneumonia, No. of adverse events (%)",[1],3 (3.8) No. (%)
same,"Serious adverse events, by No. of patients (%)",[1],1 (1.3) No. (%)
same,"Shortness of breath, No. of adverse events (%)",[1],2 (2.5) No. (%)
same,"Teeth chattering, No. of adverse events (%)",[1],1 (1.3) No. (%)
same,"Vasovagal syncope, No. of adverse events (%)",[1],1 (1.3) No. (%)
same,"Ache in chest wall (ribs/sternum) present during the course of COVID-19, %",[2],(33%)
same,"Ache in chest wall (ribs/sternum) present within past 48 hours at follow-up, %",[2],(11%)
same,"Chest pain that worsens when taking a deep breath, present during the course of COVID-19, %",[2],(37%)
same,"Chest pain that worsens when taking a deep breath, present within past 48 hours at follow-up, %",[2],(17%)
same,"Chest pressure present during the course of COVID-19, %",[2],(54%)
same,"Chest pressure present within past 48 hours at time of follow-up, %",[2],(17%)
same,"Chest tightness present during the course of COVID-19, %",[2],(54%)
same,"Chest tightness present within past 48 hours at follow-up, %",[2],(17%)
same,"Pain deep inside the chest present during the course of COVID-19, %",[2],(31%)
same,"Pain deep inside the chest present within past 48 hours at follow-up, %",[2],(9%)
same,"Sharp chest pains present during the course of COVID-19, %",[2],(33%)
same,"Sharp chest pains present within past 48 hours at follow-up, %",[2],(13%)
same,"Hospitalization or extended emergency room visit due to COVID-19, HR",[3],0.77
same,"Patients with any interaction with a COVID-19 emergency setting, No.",[3],180
same,"Period of hospitalization, estimated treatment effect",[3],1.23
same,"Progression to severe COVID (FDA categorization), % of patients",[3],10.1%
same,"Proportion of primary outcome events, %",[3],3.6%
same,"Time on mechanical ventilator, estimated treatment effect",[3],1.03
same,"Primary outcome events (retention in COVID-19 emergency setting >6 h or transfer to tertiary hospital), No. of patients",[3]; 100 mg,79
same,"Proportion of primary outcome events, %",[3]; 24 h,10.5%
same,Probability of superiority (event rate lower than placebo),[3]; ITT population,99.8%
same,"Primary outcome events, % of patients","[3]; ITT, of 741, 28 days",11%
same,"Primary outcome events, n/N",[3]; [7],(79/741)
same,"Proportion of primary outcome events (retention in COVID-19 emergency setting >6 hours or transfer to tertiary hospital), %",[3]; [7],10.7%
same,"Primary outcome events (retention in a COVID-19 emergency setting or transfer to tertiary hospital due to COVID-19), %","[3]; Intention-to-treat analysis, N 741",(11%)
same,"Primary outcome events, n/N","[3]; Modified Intent to Treat Analysis, received ≥24 hours of study medicine",(78/740)
same,"Primary outcome events (retention in a COVID-19 emergency setting or transfer to tertiary hospital due to COVID-19), %","[3]; Modified intention-to-treat analysis, N 740",(11%)
same,"Primary outcome events, n/N","[3]; Per Protocol, received 80% of study medicine prior to any deterioration",(20/548)
same,"All-cause hospitalization, n/N","[3]; TOGETHER, fluvoxamine group",76/741
same,"Death, intention to treat, %","[3]; TOGETHER, fluvoxamine group",(2%)
same,"Death, intention to treat, n/N","[3]; TOGETHER, fluvoxamine group",17/741
same,"Hospitalized for COVID, n/N","[3]; TOGETHER, fluvoxamine group",75/741
same,Probability that event rate was lower than placebo,[3]; mITT population,99.7%
same,Time to death,"[3]; median, fluvoxamine group",17 days
same,"Death, per protocol, %",[3]; [8],(<1%)
same,"Death, per protocol, n/N",[3]; [8],1/548
same,"Deaths, No.",[3]; per-protocol population,one
same,Reduction in risk of death (mortality),"[3]; per-protocol, took at least 80% of pills",91%
same,"Deaths, No.",[3]; primary intention-to-treat analysis,17
same,Number needed to treat,[3]; primary outcome,20
same,"Hospitalization or extended emergency room visit due to COVID-19, n_Fluvoxamine",[3]; subgroup Age <=50,23
same,"Hospitalization or extended emergency room visit due to COVID-19, HR","[3]; subgroup Age <=50, vs placebo",0.57
same,"Hospitalization or extended emergency room visit due to COVID-19, HR","[3]; subgroup Age >50, vs placebo",0.67
same,"Hospitalization or extended emergency room visit due to COVID-19, n_Fluvoxamine",[3]; subgroup BMI (Kg/m^2) >30,44
same,"Hospitalization or extended emergency room visit due to COVID-19, HR","[3]; subgroup BMI (Kg/m^2) >30, vs placebo",0.64
same,"Hospitalization or extended emergency room visit due to COVID-19, HR","[3]; subgroup Cardiovascular disease N, vs placebo",0.67
same,"Hospitalization or extended emergency room visit due to COVID-19, n_Fluvoxamine",[3]; subgroup Cardiovascular disease Y,0
same,"Hospitalization or extended emergency room visit due to COVID-19, n_Fluvoxamine",[3]; subgroup Chronic kidney disease N,78
same,"Hospitalization or extended emergency room visit due to COVID-19, n_Fluvoxamine",[3]; subgroup Chronic kidney disease Y,1
same,"Hospitalization or extended emergency room visit due to COVID-19, n_Fluvoxamine",[3]; subgroup Sex Female,28
same,"Hospitalization or extended emergency room visit due to COVID-19, n_Fluvoxamine",[3]; subgroup Sex Male,51
same,"Hospitalization or extended emergency room visit due to COVID-19, HR","[3]; subgroup Sex Male, vs placebo",0.80
same,"Hospitalization or extended emergency room visit due to COVID-19, HR","[3]; subgroup Smoking status Current, vs placebo",0.80
same,"Hospitalization or extended emergency room visit due to COVID-19, n_Fluvoxamine",[3]; subgroup Smoking status Former,10
same,"Hospitalization or extended emergency room visit due to COVID-19, HR","[3]; subgroup Smoking status Former, vs placebo",0.46
same,"Hospitalization or extended emergency room visit due to COVID-19, n_Fluvoxamine",[3]; subgroup Time from onset of symptoms 0-3 days,30
same,"Time to death, estimated treatment effect","[3]; unadjusted hazard ratio, fluvoxamine vs placebo",0.80
same,"Death, intention to treat, estimated treatment effect","[3]; unadjusted odds ratio, fluvoxamine vs placebo",0.69
same,HR for death vs matched controls,[4]; 95% CI 0.36-0.94,0.58
same,"Patients who died, %","[4]; ICU patients, 100 mg three times daily",58.8%
same,Reduced risk of death vs matched controls,[4]; in vivo,42%
same,"Patients who died, No.","[4]; of 51 ICU patients, 100 mg three times daily",30
same,"Affinity for α1-, α2-, β-adrenergic, muscarinic, dopamine D2, histamine H1, GABA-benzodiazepine, opiate, 5-HT1, or 5-HT2 receptors",[5],negligible affinity
same,Incidence of hospitalization,"[6]; 50 mg twice daily, 14 days",0%
same,"Patients hospitalized, number of 65",[6]; 14 days,no patients and 0 of 65
same,"Patients hospitalized, number of 65","[6]; 14 days, listed as FLV",0/65
same,Persistent residual / ongoing symptoms at 14 days,[6]; Day 14,0%
same,"Persons with persistent residual / ongoing symptoms at 14 days, number of 65",[6]; Day 14,0/65 and zero
same,"Persons with persistent residual / ongoing symptoms at 14 days, number of 65","[6]; Day 14, listed as FLV",0/65
